According to ChEMBL document CHEMBL3585268, “Treatment of Cancer with NAMPT Inhibitors” (2015):

How the values were obtained:
Format in all cases: functional
[1] = test system: Mus musculus; experiment: In vivo inhibition of NAMPT in human A2780 cells xenografted in Harlan nude mouse assessed as NAD+ level per mg of tissue at 10 mg/kg, po bid measured 7 hrs post second dose by LC-MS analysis (reference value: 55.03 to 56.3 pmol)
[2] = test system: Mus musculus; experiment: In vivo inhibition of NAMPT in human A2780 cells xenografted in Harlan nude mouse assessed as NAD+ level per mg of tissue at 20 mg/kg, po bid measured 7 hrs post second dose by LC-MS analysis (reference value: 55.03 to 56.3 pmol)
[3] = test system: Mus musculus; experiment: In vivo inhibition of NAMPT in human NCI-H1155 cells xenografted in Harlan nude mouse assessed as NAD+ level per mg of tissue at 10 mg/kg, po bid measured 7 hrs post second dose by LC-MS analysis (reference value: 20.08 to 57.97 pmol)
[4] = test system: Mus musculus; experiment: In vivo inhibition of NAMPT in human NCI-H1155 cells xenografted in Harlan nude mouse assessed as NAD+ level per mg of tissue at 20 mg/kg, po bid measured 7 hrs post second dose by LC-MS analysis (reference value: 20.08 to 57.97 pmol)
[5] = test system: Mus musculus; experiment: In vivo inhibition of NAMPT in human NCI-H1155 cells xenografted in Harlan nude mouse assessed as NAD+ level per mg of tissue at 5 mg/kg, po bid measured 7 hrs post second dose by LC-MS analysis (reference value: 20.08 to 57.97 pmol)
[6] = test system: Mus musculus; experiment: In vivo inhibition of NAMPT in human A2780 cells xenografted in Harlan nude mouse assessed as NAD+ level per mg of tissue at 5 mg/kg, po bid measured 7 hrs post second dose by LC-MS analysis (reference value: 55.03 to 56.3 pmol)
[7] = test system: Mus musculus; experiment: In vivo inhibition of NAMPT in human NCI-H1155 cells xenografted in Harlan nude mouse assessed as NAD+ level per mg of tissue at 16 mg/kg, po bid measured 7 hrs post second dose by LC-MS analysis (reference value: 20.08 to 57.97 pmol)
[8] = test system: Mus musculus; experiment: In vivo inhibition of NAMPT in human NCI-H1155 cells xenografted in Harlan nude mouse assessed as NAD+ level per mg of tissue at 8 mg/kg, po bid measured 7 hrs post second dose by LC-MS analysis (reference value: 20.08 to 57.97 pmol)
[9] = test system: Mus musculus; experiment: In vivo inhibition of NAMPT in human A2780 cells xenografted in Harlan nude mouse assessed as NAD+ level per mg of tissue at 8 mg/kg, po bid measured 7 hrs post second dose by LC-MS analysis (reference value: 55.03 to 56.3 pmol)
[10] = test system: Mus musculus; experiment: In vivo inhibition of NAMPT in human NCI-H1155 cells xenografted in Harlan nude mouse assessed as NAD+ level per mg of tissue at 32 mg/kg, po bid measured 7 hrs post second dose by LC-MS analysis (reference value: 20.08 to 57.97 pmol)
[11] = test system: Mus musculus; experiment: In vivo inhibition of NAMPT in human A2780 cells xenografted in Harlan nude mouse assessed as NAD+ level per mg of tissue at 16 mg/kg, po bid measured 7 hrs post second dose by LC-MS analysis (reference value: 55.03 to 56.3 pmol)
[12] = test system: Mus musculus; experiment: In vivo inhibition of NAMPT in human A2780 cells xenografted in Harlan nude mouse assessed as NAD+ level per mg of tissue at 32 mg/kg, po bid measured 7 hrs post second dose by LC-MS analysis (reference value: 55.03 to 56.3 pmol)

Row | SMILES | Activity [1] | Activity [2] | Activity [3] | Activity [4] | Activity [5] | Activity [6] | Activity [7] | Activity [8] | Activity [9] | Activity [10] | Activity [11] | Activity [12]
1 | CC(C)(O)CS(=O)(=O)Nc1ccc2c(c1)CCN(C(=O)COc1cccnc1)C2 | 2.55 pmol | 3.29 pmol | 3.63 pmol | 1.82 pmol | 7.48 pmol | 5.04 pmol |  |  |  |  |  | 
2 | COCCS(=O)(=O)Nc1ccc2c(c1)CCN(C(=O)COc1cccnc1)C2 |  |  |  |  |  |  | 1.98 pmol | 5.19 pmol | 3.97 pmol | 0.84 pmol | 6.52 pmol | 6.38 pmol
